One assay concerns the target T1, dopamine D1 receptor (Homo sapiens, UniProt P21728).
T1 construct: expressed in transfected cells; host or cells: Cos-7 cells
Put plainly: cAMP in Cos-7 cells transfected with dopamine D1 receptor. Format: cell-based. Conditions: 10 μM, dopamine D1 (FIG. 7). How it is done: (§1) A typical protocol for the electroporation method as applied to Cos-7 cells is described as follows. Cells to be used for transfection are split 24 hours prior to the transfection to provide flasks which are subconfluent at the time of transfection. The cells are harvested by trypsinization resuspended in their growth media and counted. 5×10^6 cells are suspended in 300 μl of DMEM and placed into an electroporation cuvette. 8 μg of receptor DNA plus 8 μg of any additional DNA needed (e.g. G protein expression vector, reporter construct, antibiotic resistance marker, mock vector, etc.) is added to the cell suspension, the cuvette is placed into a BioRad Gene Pulser and subjected to an electrical pulse (Gene Pulser settings: 0.25 kV voltage, 950 μF capacitance). Following the pulse, 800 μl of complete DMEM is added to each cuvette and the suspension transferred to a sterile tube. Complete medium is added to each tube to bring the final cell concentration to 1×10^5 cells/100 μl. […]
(§2) The receptor-mediated stimulation or inhibition of cyclic AMP (cAMP) formation may be assayed in cells expressing the receptors. […] The plates are stored at 4° C. for 15 min, and the cAMP content in the stopping solution is measured by radioimmunoassay. Radioactivity may be quantified using a gamma counter equipped with data reduction software. […]

Assay [1] has as its system control (CFTR alone) oocytes. Description: CFTR Cl- currents in control oocytes injected with only CFTR mRNA. The format is cell-based, Xenopus laevis. Conditions: 10 μM.
In a further assay the target is T2, SNORF25 receptor (Rattus norvegicus, UniProt Q7TQN8).
T2 construct: the entire coding region was amplified from Rin14b cell line cDNA and rat genomic DNA; expressed in transfected cells; host or cells: CHO cells, transient (electroporation)
T2 sequence (Q7TQN8 with tags, fused parts or gaps limits assumed): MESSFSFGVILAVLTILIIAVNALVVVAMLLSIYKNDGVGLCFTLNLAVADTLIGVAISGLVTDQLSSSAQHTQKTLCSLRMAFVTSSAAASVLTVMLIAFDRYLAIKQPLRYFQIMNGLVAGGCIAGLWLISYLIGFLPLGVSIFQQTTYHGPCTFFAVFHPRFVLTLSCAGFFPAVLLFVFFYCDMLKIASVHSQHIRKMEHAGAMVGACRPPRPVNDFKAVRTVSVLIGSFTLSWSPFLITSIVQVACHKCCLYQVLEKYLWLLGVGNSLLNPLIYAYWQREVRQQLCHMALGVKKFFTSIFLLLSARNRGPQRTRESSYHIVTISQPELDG
Description: IP release in SNORF25-transfected CHO cells. The format is cell-based. On the procedure: In a 96 well microplate format assay, cells are plated at a density of 70,000 cells per well and allowed to incubate for 24 hours. The cells are then labeled with 0.5 μCi [^3H]-myo-inositol overnight at 37° C., 5% CO2. Immediately before the assay, the medium is removed and replaced with 90 μL of PBS containing 10 mM LiCl. The plates are then incubated for 15 min at 37° C., 5% CO2. Following the incubation, the cells are challenged with agonist (10 μl/well; 10× concentration) for 30 min at 37° C., 5% CO2. The challenge is terminated by the addition of 100 μL of 50% v/v trichloroacetic acid, followed by incubation at 4° C. for greater than 30 minutes. Total IPs are isolated from the lysate by ion exchange chromatography. Briefly, the lysed contents of the wells are transferred to a Multiscreen HV filter plate (Millipore) containing Dowex AG1-X8 (200–400 mesh, formate form). The filter plates are prepared adding 100 μL of Dowex AG1-X8 suspension (50% v/v, water: resin) to each well. The filter plates are placed on a vacuum manifold to wash or elute the resin bed. Each well is first washed 2 times with 200 μl of 5 mM myo-inositol. Total [^3H]inositol phosphates are eluted with 75 μl of 1.2M ammonium formate/0.1M formic acid solution into 96-well plates. 200 μL of scintillation cocktail is added to each well, and the radioactivity is determined by liquid scintillation counting. […]

A further assay concerns the target T3, serotonin 5-HT6 receptor (Homo sapiens, UniProt P50406).
T3 construct: expressed in transfected cells; host or cells: Cos-7 cells
Description: cAMP in Cos-7 cells transfected with serotonin 5-HT6 receptor. Format: cell-based. Conditions: 10 μM, serotonin 5-HT6 (FIG. 7). How it is done: as §1, §2

Assay [2] concerns mock-transfected CHO cells. Put plainly: cAMP and IP release in mock-transfected CHO cells. The format is cell-based, Chinese hamster. How it is done:
CHO cells are grown on 150 mm plates in HAM's F-12 medium with supplements (10% bovine calf serum, 4 mM L-glutamine and 100 units/ml penicillin/100 μg/ml streptomycin) at 37° C., 5% CO2. Stock plates of CHO cells are trypsinized and split 1:8 every 3–4 days.
as §1, with “capacitance).” for “capacitance). Following the pulse, 800 μl of complete DMEM is added to each cuvette and the suspension transferred to a sterile tube. Complete medium is added to each tube to bring the final cell concentration to 1×10^5 cells/100 μl.”
as §2

T1 sequence (P21728 whole entry): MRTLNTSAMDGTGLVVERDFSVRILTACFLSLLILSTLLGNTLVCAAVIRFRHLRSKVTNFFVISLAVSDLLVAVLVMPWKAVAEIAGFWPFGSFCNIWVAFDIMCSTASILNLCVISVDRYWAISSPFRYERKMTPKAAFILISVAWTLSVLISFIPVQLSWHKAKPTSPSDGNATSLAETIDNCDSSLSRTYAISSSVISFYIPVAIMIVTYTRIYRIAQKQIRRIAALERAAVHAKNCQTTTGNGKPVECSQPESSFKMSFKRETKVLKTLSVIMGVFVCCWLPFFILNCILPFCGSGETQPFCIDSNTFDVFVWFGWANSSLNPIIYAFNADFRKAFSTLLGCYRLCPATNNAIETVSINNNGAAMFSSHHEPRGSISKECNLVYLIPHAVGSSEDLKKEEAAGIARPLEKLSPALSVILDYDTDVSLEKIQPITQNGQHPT
T3 sequence (P50406 whole entry): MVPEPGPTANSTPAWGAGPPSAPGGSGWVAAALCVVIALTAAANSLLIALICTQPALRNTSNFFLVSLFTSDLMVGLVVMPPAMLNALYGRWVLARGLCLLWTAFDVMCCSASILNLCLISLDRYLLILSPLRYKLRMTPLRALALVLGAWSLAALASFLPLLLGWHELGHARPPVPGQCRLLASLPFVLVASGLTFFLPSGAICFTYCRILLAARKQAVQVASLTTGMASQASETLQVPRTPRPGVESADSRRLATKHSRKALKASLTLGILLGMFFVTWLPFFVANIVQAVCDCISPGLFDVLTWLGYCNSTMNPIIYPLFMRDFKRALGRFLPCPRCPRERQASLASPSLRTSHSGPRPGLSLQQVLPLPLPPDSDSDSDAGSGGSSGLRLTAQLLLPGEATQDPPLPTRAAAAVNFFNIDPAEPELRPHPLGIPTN

For the molecule `CC1=C(/C=C/C(C)=C/C=C/C(C)=C/C(=O)O)C(C)(C)CCC1` [ATRA, all-trans-retinoic acid], the cAMP response entry on dopamine D1 receptor and on serotonin 5-HT6 receptor was “no response” throughout. For the same molecule, the “current response in oocytes injected with only CFTR mRNA” value in assay [1] is reported as “no such current was observed”. In addition, on SNORF25 receptor, the IP release entry was “not IP release”. Also, the “cAMP and IP release in mock-transfected CHO cells” value in assay [2] was “without affecting these parameters”.
